Assay results from patent US20250282746A1, “HALOGEN-SUBSTITUTED ISOINDOLINE COMPOUND AND USE THEREOF” (CHENGDU FENDI PHARMACEUTICAL CO., LTD., priority 2022, published 2025).
Where two headings read alike, the source gives them in different places.

Experiments:
Type in all cases: cell-based
NCI-H929 cells = assay: Antiproliferative activity against various tumor cells: NCI-H929; settings: Homo sapiens, read-out: Antiproliferative activity IC50 NCI-H929
Method: (§1) U937, NCI-H929, AML-2, and MOLM-13 cells in the logarithmic growth phase were diluted in media RPMI+10% FBS, RPMI+10% FBS, MEMα+20% FBS, RPMI+20% FBS, respectively, and plated at 4,000 cells/well in 96-well whole black plates (WHB) with 50 μL/well. After plating, the plates were incubated in an incubator at 5% CO2 and 37° C. for 24 h before the compounds were added. The compounds were prepared into a 10 mM stock solution in DMSO and diluted in a culture medium to the desired concentrations (a final DMSO concentration of 0.2%). […] The plates were incubated at 5% CO2 and 37° C. for 72 h. After the incubation was complete, the plates were equilibrated at room temperature for 30 min. CellTiter-Glo® Reagent (Promega G7573) was added at 100 μL/well. The plates were shaken for 12 min on a microplate shaker. The luminescence value was measured at room temperature by the GloMax navigator (Promega GM2010).

GSPT1 protein = molecular target: T1, GSPT1 protein (Homo sapiens, UniProt P15170); assay: Degradation of GSPT1 protein in NB-4 cells (Western blot); settings: for inhibition at 1 µM: read-out: GSPT1 degradation
T1 construct: The whole cell lysate was prepared using a RIPA lysis buffer; endogenous in cells; host or cells: NB-4 cells
T1 sequence (P15170 whole entry): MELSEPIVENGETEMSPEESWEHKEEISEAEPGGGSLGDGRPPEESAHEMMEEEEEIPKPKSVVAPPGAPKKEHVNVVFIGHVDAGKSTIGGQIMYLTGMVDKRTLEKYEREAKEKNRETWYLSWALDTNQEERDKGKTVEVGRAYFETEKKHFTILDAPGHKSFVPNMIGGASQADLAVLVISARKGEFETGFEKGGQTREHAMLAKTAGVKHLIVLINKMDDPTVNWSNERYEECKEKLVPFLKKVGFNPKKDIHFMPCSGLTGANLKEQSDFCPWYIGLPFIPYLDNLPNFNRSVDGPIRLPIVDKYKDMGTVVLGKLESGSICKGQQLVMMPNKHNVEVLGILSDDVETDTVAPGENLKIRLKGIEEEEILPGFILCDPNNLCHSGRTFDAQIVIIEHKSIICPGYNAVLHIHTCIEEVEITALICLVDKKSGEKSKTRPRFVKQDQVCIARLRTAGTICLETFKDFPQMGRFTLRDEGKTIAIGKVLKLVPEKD
In short: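 GSPT1 levels were read by Western blot (4-20% SDS-PAGE, PVDF, overnight primary antibody at 4 °C) on lysates of NB-4 cells.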

IKZF3 = molecular target: T2, IKZF3 (Homo sapiens, UniProt Q9UKT9); assay: Degradation of IKZF3 protein in HL-60 cells (Western blot); settings: 4 h
T2 construct: The whole cell lysate was prepared using a RIPA lysis buffer; endogenous in cells; host or cells: HL-60 cells
T2 sequence (Q9UKT9 whole entry): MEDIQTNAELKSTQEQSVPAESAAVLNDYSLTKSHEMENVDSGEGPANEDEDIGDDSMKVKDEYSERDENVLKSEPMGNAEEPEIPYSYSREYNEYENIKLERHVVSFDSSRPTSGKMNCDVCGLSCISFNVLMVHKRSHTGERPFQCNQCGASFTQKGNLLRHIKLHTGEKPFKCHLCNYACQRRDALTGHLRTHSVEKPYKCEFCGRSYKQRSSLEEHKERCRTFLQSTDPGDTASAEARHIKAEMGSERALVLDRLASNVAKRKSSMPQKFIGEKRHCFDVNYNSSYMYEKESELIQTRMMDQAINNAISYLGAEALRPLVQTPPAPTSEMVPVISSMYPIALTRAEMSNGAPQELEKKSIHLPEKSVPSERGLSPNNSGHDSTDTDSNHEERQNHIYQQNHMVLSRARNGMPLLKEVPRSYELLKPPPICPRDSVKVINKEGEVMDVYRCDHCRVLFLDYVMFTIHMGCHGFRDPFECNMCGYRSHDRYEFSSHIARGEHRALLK
Method: (§2) […] of DMSO and the compounds were added, and the mixture was incubated in an incubator at 5% CO2 and 37° C. for 4 h. The cells were centrifuged, and the culture medium was discarded. PBS was added for washing and then discarded. The whole cell lysate was prepared using a RIPA lysis buffer containing a protease inhibitor cocktail and a phosphatase inhibitor, and incubated on ice for 30 min. The mixture was centrifuged, and the cell debris was discarded. The whole cell lysate supernatant was collected and transferred to a fresh EP tube. Samples were prepared using a loading buffer after a BCA protein assay. The samples were incubated in a metal bath at 100° C. for 10 min. The samples were electrophoretically separated from proteins on a 4-20% precast gel (SDS-PAGE gel), transferred to a PVDF membrane, blocked with 5% NFDM/TBST for 1 h at room temperature, co-incubated overnight at 4° C. with the primary antibody, and co-incubated for 2 h at room temperature with the secondary antibody on the next day. The signals were detected on the […]™ imaging system.

U937 cells = assay: Antiproliferative activity against various tumor cells: U937; settings: Homo sapiens, read-out: Antiproliferative activity IC50 U937
Method: as §1

AML-2 cells = assay: Antiproliferative activity against various tumor cells: AML-2; settings: 72 h, read-out: Antiproliferative activity IC50 AML-2
Method: as §1

hERG potassium channel = molecular target: T3, hERG potassium channel (Homo sapiens, UniProt Q12809); assay: hERG inhibition assay (automated patch clamp, HEK293); settings: 3 μM, HEK293 cells, QPatch
T3 construct: expressed in transfected cells; host or cells: HEK293 cells
T3 sequence (Q12809 whole entry): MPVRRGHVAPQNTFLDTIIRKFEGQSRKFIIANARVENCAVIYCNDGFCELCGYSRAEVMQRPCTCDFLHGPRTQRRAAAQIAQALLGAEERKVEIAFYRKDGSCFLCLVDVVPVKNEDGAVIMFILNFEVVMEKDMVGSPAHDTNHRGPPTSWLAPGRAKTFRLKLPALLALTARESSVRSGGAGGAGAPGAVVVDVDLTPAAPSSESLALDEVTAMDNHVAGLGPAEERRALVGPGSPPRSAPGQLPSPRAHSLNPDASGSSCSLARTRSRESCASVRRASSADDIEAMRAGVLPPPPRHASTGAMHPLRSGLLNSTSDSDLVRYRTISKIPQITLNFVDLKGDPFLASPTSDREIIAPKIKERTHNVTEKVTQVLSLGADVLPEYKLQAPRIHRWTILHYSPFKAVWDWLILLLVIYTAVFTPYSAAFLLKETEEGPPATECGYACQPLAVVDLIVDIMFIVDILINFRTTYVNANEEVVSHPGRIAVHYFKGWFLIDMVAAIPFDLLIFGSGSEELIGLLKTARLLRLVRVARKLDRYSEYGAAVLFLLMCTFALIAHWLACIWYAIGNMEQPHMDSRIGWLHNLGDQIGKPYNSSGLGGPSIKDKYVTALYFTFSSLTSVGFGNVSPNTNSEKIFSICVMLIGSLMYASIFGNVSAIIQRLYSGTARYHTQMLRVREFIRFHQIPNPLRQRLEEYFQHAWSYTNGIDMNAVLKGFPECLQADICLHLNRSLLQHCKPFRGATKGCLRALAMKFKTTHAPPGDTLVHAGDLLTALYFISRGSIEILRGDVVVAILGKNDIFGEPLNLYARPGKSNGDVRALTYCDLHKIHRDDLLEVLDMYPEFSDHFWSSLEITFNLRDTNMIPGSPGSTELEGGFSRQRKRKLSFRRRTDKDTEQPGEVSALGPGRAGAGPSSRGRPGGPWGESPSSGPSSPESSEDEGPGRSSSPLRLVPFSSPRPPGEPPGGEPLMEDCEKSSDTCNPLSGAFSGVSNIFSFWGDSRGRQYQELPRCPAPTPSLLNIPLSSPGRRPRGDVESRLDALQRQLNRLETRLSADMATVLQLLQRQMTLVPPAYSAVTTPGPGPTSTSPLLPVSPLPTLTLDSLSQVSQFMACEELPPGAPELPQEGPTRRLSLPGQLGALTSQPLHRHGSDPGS
Excerpt: The rapidly activating potassium channel encoded by human ether-a-go-go-related gene (hERG) is an important ion channel involved in the formation of cardiac action potential phase 3 repolarization. Blocking of the hERG channel by drugs can lead to the prolongation of cardiac repolarization and thus a prolonged QT interval in the electrocardiogram, known as long QT syndrome. Drug-induced delayed ventricular repolarization may in some cases trigger fatal arrhythmia-torsade de pointes-type ventricular tachycardia.
This assay was used to measure the effect of compounds on the hERG potassium channel clones expressed in human embryonic kidney (HEK293) cells. The assay procedures are as follows: the cells were transferred into a HEPES-buffered saline in glass-lined 96-well plates and exposed to an appropriate amount of test compound or control solution at various concentrations for 3 min. The test compounds were diluted in 0.3% DMSO.

IKZF1 = molecular target: T4, IKZF1 (Homo sapiens, UniProt Q13422); assay: Degradation of IKZF1 protein in HL-60 cells (Western blot); settings: 4 h
T4 construct: The whole cell lysate was prepared using a RIPA lysis buffer; endogenous in cells; host or cells: HL-60 cells
T4 sequence (Q13422 whole entry): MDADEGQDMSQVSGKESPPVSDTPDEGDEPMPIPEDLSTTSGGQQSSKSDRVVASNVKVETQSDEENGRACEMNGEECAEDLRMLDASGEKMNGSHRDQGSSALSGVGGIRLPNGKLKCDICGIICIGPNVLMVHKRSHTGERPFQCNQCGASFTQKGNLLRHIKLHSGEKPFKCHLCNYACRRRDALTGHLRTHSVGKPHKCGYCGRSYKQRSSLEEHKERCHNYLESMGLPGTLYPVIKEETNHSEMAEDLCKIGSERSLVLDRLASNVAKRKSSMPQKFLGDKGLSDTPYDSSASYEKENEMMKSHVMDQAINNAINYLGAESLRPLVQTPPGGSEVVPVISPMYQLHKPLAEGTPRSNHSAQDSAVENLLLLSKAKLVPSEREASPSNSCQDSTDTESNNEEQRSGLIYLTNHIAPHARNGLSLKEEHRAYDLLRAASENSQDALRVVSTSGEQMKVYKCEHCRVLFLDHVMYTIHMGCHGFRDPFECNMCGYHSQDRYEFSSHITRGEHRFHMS
Method: as §2

c-Myc = molecular target: T5, c-Myc (Homo sapiens, UniProt P01106); assay: Degradation of c-MYC protein in HL-60 cells (Western blot); settings: 4 h
T5 construct: The whole cell lysate was prepared using a RIPA lysis buffer; endogenous in cells; host or cells: HL-60 cells
T5 sequence (P01106 whole entry): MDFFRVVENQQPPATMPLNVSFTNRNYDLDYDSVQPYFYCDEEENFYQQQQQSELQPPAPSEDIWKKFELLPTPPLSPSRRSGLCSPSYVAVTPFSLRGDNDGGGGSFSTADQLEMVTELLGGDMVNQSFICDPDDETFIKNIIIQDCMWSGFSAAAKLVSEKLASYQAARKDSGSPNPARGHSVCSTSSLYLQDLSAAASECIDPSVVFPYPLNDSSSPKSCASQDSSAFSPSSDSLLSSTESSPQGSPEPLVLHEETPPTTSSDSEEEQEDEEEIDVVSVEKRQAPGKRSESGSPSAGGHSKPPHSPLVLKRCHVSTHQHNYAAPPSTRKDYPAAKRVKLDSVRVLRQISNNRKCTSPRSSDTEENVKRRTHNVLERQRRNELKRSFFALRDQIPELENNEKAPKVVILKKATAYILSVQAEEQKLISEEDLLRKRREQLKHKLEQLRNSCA
Method: as §2

CK1α = molecular target: T6, CK1α (Homo sapiens, UniProt P48729); assay: Degradation of CK1α protein in HL-60 cells (Western blot); settings: 4 h
T6 construct: The whole cell lysate was prepared using a RIPA lysis buffer; endogenous in cells; host or cells: HL-60 cells
T6 sequence (P48729 whole entry): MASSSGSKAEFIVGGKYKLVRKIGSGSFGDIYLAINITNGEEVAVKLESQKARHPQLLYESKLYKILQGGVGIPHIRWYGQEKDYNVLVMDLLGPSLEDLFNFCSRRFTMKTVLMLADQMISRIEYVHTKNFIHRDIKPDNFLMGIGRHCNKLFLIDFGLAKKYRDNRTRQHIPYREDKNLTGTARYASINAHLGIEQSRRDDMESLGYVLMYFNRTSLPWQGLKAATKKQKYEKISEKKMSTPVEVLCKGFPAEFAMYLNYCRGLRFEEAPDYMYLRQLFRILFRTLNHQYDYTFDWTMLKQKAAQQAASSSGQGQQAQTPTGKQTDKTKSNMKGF
Method: as §2

MOLM-13 cells = assay: Antiproliferative activity against various tumor cells: MOLM-13; settings: Homo sapiens, read-out: Antiproliferative activity IC50 MOLM-13
Method: as §1

Structure (SMILES)	IKZF3 degradation (IKZF3; 10 nM)	IKZF3 degradation (IKZF3; 100 nM)	IKZF3 degradation (IKZF3; 1000 nM)	hERG inhibition rate (hERG potassium channel) [%]	IKZF1 degradation (IKZF1; 10 nM)	IKZF1 degradation (IKZF1; 100 nM)	IKZF1 degradation (IKZF1; 1000 nM)	c-Myc degradation (c-Myc; 10 nM)	c-Myc degradation (c-Myc; 100 nM)	c-Myc degradation (c-Myc; 1000 nM)	CK1α degradation (CK1α; 10 nM)	CK1α degradation (CK1α; 100 nM)	CK1α degradation (CK1α; 1000 nM)	other results
O=C1CCC(N2Cc3c(ccc(CNC(=O)c4ccc(Cl)cc4)c3F)C2=O)C(=O)N1 (stereo not shown) [FDAB-48]	C (C denotes a percentage of degradation less than 500% but not less than 250%)	B (B denotes a percentage of degradation less than 800% but not less than 500%)	A (A denotes a percentage of GSPT1 protein degradation not less than 8000)	25	B (B denotes a percentage of degradation less than 800% but not less than 500%)	A (A denotes a percentage of GSPT1 protein degradation not less than 8000)	A (A denotes a percentage of GSPT1 protein degradation not less than 8000)	D (D denotes a percentage of degradation less than 25%)	D (D denotes a percentage of degradation less than 25%)	C (C denotes a percentage of degradation less than 500% but not less than 250%)	D (D denotes a percentage of degradation less than 25%)	D (D denotes a percentage of degradation less than 25%)	D (D denotes a percentage of degradation less than 25%)	IC50 (NCI-H929 cells; NCI-H929, 72 h): 1 to 10 nM; inhibition at 1 µM (GSPT1 protein; NB-4, 6 h): > 80%; degradation of GSPT1 protein (GSPT1 protein; co-incubated for 6 h with NB-4 cells): 88%; IC50 (U937 cells; U-937, 72 h): 10 to 100 nM; IC50 (AML-2 cells): 100 to 1000 nM; IC50 (MOLM-13 cells; MOLM-13, 72 h): 10 to 100 nM
Cc1ccc(C(=O)NCc2ccc3c(c2F)CN(C2CCC(=O)NC2=O)C3=O)c(F)c1 (stereo not shown) [FDAB-121]	D (D denotes a percentage of degradation less than 25%)	B (B denotes a percentage of degradation less than 800% but not less than 500%)	B (B denotes a percentage of degradation less than 800% but not less than 500%)	9	B (B denotes a percentage of degradation less than 800% but not less than 500%)	A (A denotes a percentage of GSPT1 protein degradation not less than 8000)	A (A denotes a percentage of GSPT1 protein degradation not less than 8000)	D (D denotes a percentage of degradation less than 25%)	D (D denotes a percentage of degradation less than 25%)	D (D denotes a percentage of degradation less than 25%)	D (D denotes a percentage of degradation less than 25%)	D (D denotes a percentage of degradation less than 25%)	C (C denotes a percentage of degradation less than 500% but not less than 250%)	IC50 (NCI-H929 cells; NCI-H929 cells, 72 h): 1 to 10 nM; inhibition at 1 µM (GSPT1 protein; NB-4 cells, compound 1 μM, 6 h): > 80%; IC50 (U937 cells; U-937, U937 cells, 72 h): 10 to 100 nM; IC50 (AML-2 cells; AML-2 cells): 10 to 100 nM; IC50 (MOLM-13 cells; MOLM-13 cells, 72 h): 10 to 100 nM
